Data taken from US11091496B2, “Opioid ketal compounds and uses thereof” (priority 2013, dated 2021).
Like-named read-outs stand apart in the source and are kept apart here. Marks after values point to notes of the source that are not given here.

Experiments:
[1] = assay type: physicochemical; settings: for relative rate of hydrolysis: comparison of stereoisomers; for Hydrocodone, 2S,5S ketal in hydrolysis mixture: hydrocodone 2S,5S-hexanediol ketal tested separately; for Hydrocodone, 2S,5S ketal in hydrolysis mixture / % IVC in hydrolysis mixture / Hydrocodone, 2R,5R ketal in hydrolysis mixture / % hydrocodone, % Ketal in hydrolysis mixture: 1 mg/ml; for extent of hydrolysis to hydrocodone in about 4 hours: FIG. 5, FIG. 6; for % Oxycodone, % IVA-IVD in hydrolysis mixture: total 1 mg/ml; for % IVC in hydrolysis mixture: isomer IVC tested separately, normalized; for Hydrocodone, 2R,5R ketal in hydrolysis mixture: hydrocodone 2R,5R-hexanediol ketal tested separately; for % hydrocodone, % Ketal in hydrolysis mixture: hydrocodone 1,3-propanediol ketal
[2] = 5% acetic acid 100° C.; for % Oxycodone, % IVA-IVD in hydrolysis mixture: unreacted oxycodone + four isomers of Formula IV, 1 mg/ml
[3] = Ketal hydrolysis at varying pH, buffers at 37° C.; settings: 1 mg/ml; for hydrolysis of the ketal: 37° C.
[4] = mixture of isomers, 0.1 N HCl 37° C.

## Hydrocodone 2S,5S-hexanediol ketal [2S,5S ketal]
[1]
  relative rate of hydrolysis: hydrolyzes relatively slowly
[1]; 0.1 N HCl 37° C., 0 h
  Hydrocodone, 2S,5S ketal in hydrolysis mixture: 81.98
[1]; 0.1 N HCl 37° C., 0.5 h
  Hydrocodone, 2S,5S ketal in hydrolysis mixture: 52.18
[1]; 0.1 N HCl 37° C., 1.25 h
  Hydrocodone, 2S,5S ketal in hydrolysis mixture: 35.11
[1]; 0.1 N HCl 37° C., 2 h
  Hydrocodone, 2S,5S ketal in hydrolysis mixture: 10.19
[1]; 0.1 N HCl 37° C., 3 h
  Hydrocodone, 2S,5S ketal in hydrolysis mixture: 4.29
[1]; 0.1 N HCl 37° C., 4 h
  Hydrocodone, 2S,5S ketal in hydrolysis mixture: 2

## COc1ccc2c3c1O[C@H]1C4(CCC5(O)[C@@H](C2)N(C)CC[C@]315)OCCC(C)O4 (stereo partly drawn) [Formula V, oxycodone 1,3-butanediol ketal]
[1]; [4]
  time at which about 50% of the oxycodone is released: about 5 hours
  time by which about (almost) 90% oxycodone release occurs: ≤ 25 h
[2]; FIG. 12, FIG. 13
  time to almost completely hydrolyze to oxycodone: at least 4 hours
[2]; FIG. 13
  time to about 60% hydrolysis: about 1 hour

## hydrocodone 2,5-hexanediol ketal
[1]; 0.1 N HCl 37° C.
  extent of hydrolysis to hydrocodone in about 4 hours: nearly complete hydrolysis

## oxycodone cis 1,2-cyclohexanedimethanol ketals
[1]; 0.1 N HCl 37° C., within five hours, FIG. 4
  proportion of oxycodone in the mixture: increased from about 30% to about 55%

## COc1ccc2c3c1O[C@H]1C4(CCC5(O)[C@@H](C2)N(C)CC[C@]315)O[C@@H](C)C[C@H](C)O4 (stereo partly drawn) [IVC, oxycodone 2S,4S-pentanediol ketal]
[1]; 0.1N HCl 37° C., FIG. 10
  time to almost complete hydrolysis: ≤ 8 h
[1]; 0.1 N HCl 37° C., 0 h
  % Oxycodone, % IVA-IVD in hydrolysis mixture: 35.8%
  % IVC in hydrolysis mixture: 98.7%
[1]; 0.1 N HCl 37° C., 0.583 h
  % Oxycodone, % IVA-IVD in hydrolysis mixture: 29.2%
[1]; 0.1 N HCl 37° C., 1.167 h
  % Oxycodone, % IVA-IVD in hydrolysis mixture: 26%
[1]; 0.1 N HCl 37° C., 1.75 h
  % Oxycodone, % IVA-IVD in hydrolysis mixture: 20.6%
[1]; 0.1 N HCl 37° C., 2.33 h
  % Oxycodone, % IVA-IVD in hydrolysis mixture: 17.7%
[1]; 0.1 N HCl 37° C., 2.92 h
  % Oxycodone, % IVA-IVD in hydrolysis mixture: 15%
[1]; 0.1 N HCl 37° C., 4 h
  % Oxycodone, % IVA-IVD in hydrolysis mixture: 10.3%
[1]; 0.1 N HCl 37° C., 6.5 h
  % Oxycodone, % IVA-IVD in hydrolysis mixture: 4%
[1]; 0.1 N HCl 37° C., 9.75 h
  % Oxycodone, % IVA-IVD in hydrolysis mixture: 1.5%
[1]; 0.1 N HCl 37° C., 13.75 h
  % Oxycodone, % IVA-IVD in hydrolysis mixture: 0%
[1]; 0.1 N HCl 37° C., 25 h
  % Oxycodone, % IVA-IVD in hydrolysis mixture: 0%
[1]
  relative rate of hydrolysis: hydrolyzes relatively slowly
[1]; 0.1 N HCl 37° C., 0.75 h
  % IVC in hydrolysis mixture: 71.5%
[1]; 0.1 N HCl 37° C., 1.5 h
  % IVC in hydrolysis mixture: 54%
[1]; 0.1 N HCl 37° C., 3.33 h
  % IVC in hydrolysis mixture: 18.8%
[1]; 0.1 N HCl 37° C., 6 h
  % IVC in hydrolysis mixture: 4.7%
[1]; 0.1 N HCl 37° C., 8 h
  % IVC in hydrolysis mixture: 2.1%
[2]; 0 h
  % Oxycodone, % IVA-IVD in hydrolysis mixture: 36.2%
[2]; 0.5 h
  % Oxycodone, % IVA-IVD in hydrolysis mixture: 12.8%
[2]; 1 h
  % Oxycodone, % IVA-IVD in hydrolysis mixture: 5.9%
[2]; 2 h
  % Oxycodone, % IVA-IVD in hydrolysis mixture: 0.9%
[2]; 4.35 h
  % Oxycodone, % IVA-IVD in hydrolysis mixture: 0%
[2]; 10 h
  % Oxycodone, % IVA-IVD in hydrolysis mixture: 0%

## hydrocodone 2R,5R-hexanediol ketal [2R,5R ketal]
[1]
  relative rate of hydrolysis: hydrolyzes relatively quickly
[1]; 0.1 N HCl 37° C., 0 h
  Hydrocodone, 2R,5R ketal in hydrolysis mixture: 73.88
[1]; 0.1 N HCl 37° C., 0.5 h
  Hydrocodone, 2R,5R ketal in hydrolysis mixture: 34.6
[1]; 0.1 N HCl 37° C., 1.25 h
  Hydrocodone, 2R,5R ketal in hydrolysis mixture: 11.37
[1]; 0.1 N HCl 37° C., 2 h
  Hydrocodone, 2R,5R ketal in hydrolysis mixture: 2.67
[1]; 0.1 N HCl 37° C., 3 h
  Hydrocodone, 2R,5R ketal in hydrolysis mixture: 0
[1]; 0.1 N HCl 37° C., 4 h
  Hydrocodone, 2R,5R ketal in hydrolysis mixture: 0

## COc1ccc2c3c1O[C@H]1[C@@]4(CCC5(O)[C@@H](C2)N(C)CC[C@]315)O[C@H](C)C[C@H](C)O4 (stereo partly drawn) [IVB, oxycodone 2S,4R-pentanediol ketal]
[1]; 0.1 N HCl 37° C., 0 h
  % Oxycodone, % IVA-IVD in hydrolysis mixture: 10.7%
[1]; 0.1 N HCl 37° C., 0.583 h
  % Oxycodone, % IVA-IVD in hydrolysis mixture: 10.6%
[1]; 0.1 N HCl 37° C., 1.167 h
  % Oxycodone, % IVA-IVD in hydrolysis mixture: 10.7%
[1]; 0.1 N HCl 37° C., 1.75 h
  % Oxycodone, % IVA-IVD in hydrolysis mixture: 7.8%
[1]; 0.1 N HCl 37° C., 2.33 h
  % Oxycodone, % IVA-IVD in hydrolysis mixture: 8.3%
[1]; 0.1 N HCl 37° C., 2.92 h
  % Oxycodone, % IVA-IVD in hydrolysis mixture: 8.7%
[1]; 0.1 N HCl 37° C., 4 h
  % Oxycodone, % IVA-IVD in hydrolysis mixture: 9.2%
[1]; 0.1 N HCl 37° C., 6.5 h
  % Oxycodone, % IVA-IVD in hydrolysis mixture: 10%
[1]; 0.1 N HCl 37° C., 9.75 h
  % Oxycodone, % IVA-IVD in hydrolysis mixture: 10.2%
[1]; 0.1 N HCl 37° C., 13.75 h
  % Oxycodone, % IVA-IVD in hydrolysis mixture: 10.4%
[1]; 0.1 N HCl 37° C., 25 h
  % Oxycodone, % IVA-IVD in hydrolysis mixture: 9.3%
[2]; 0 h
  % Oxycodone, % IVA-IVD in hydrolysis mixture: 10.9%
[2]; 0.5 h
  % Oxycodone, % IVA-IVD in hydrolysis mixture: 8.7%
[2]; 1 h
  % Oxycodone, % IVA-IVD in hydrolysis mixture: 9.7%
[2]; 2 h
  % Oxycodone, % IVA-IVD in hydrolysis mixture: 9.2%
[2]; 4.35 h
  % Oxycodone, % IVA-IVD in hydrolysis mixture: 9%
[2]; 10 h
  % Oxycodone, % IVA-IVD in hydrolysis mixture: 4.8%

## COc1ccc2c3c1O[C@H]1C4(CCC5[C@@H](C2)N(C)CC[C@@]351)OCCCO4 (stereo partly drawn) [Hydrocodone 1,3-propanediol ketal]
[1]; 0.1 N HCl 37° C.
  extent of hydrolysis to hydrocodone in about 4 hours: nearly complete hydrolysis
[1]; 0.1 N HCl 37° C., 0 h
  % hydrocodone, % Ketal in hydrolysis mixture: 93.1%
[1]; 0.1 N HCl 37° C., 0.57 h
  % hydrocodone, % Ketal in hydrolysis mixture: 65.7%
[1]; 0.1 N HCl 37° C., 1.25 h
  % hydrocodone, % Ketal in hydrolysis mixture: 52.3%
[1]; 0.1 N HCl 37° C., 2 h
  % hydrocodone, % Ketal in hydrolysis mixture: 41.8%
[1]; 0.1 N HCl 37° C., 3 h
  % hydrocodone, % Ketal in hydrolysis mixture: 32.8%
[1]; 0.1 N HCl 37° C., 4 h
  % hydrocodone, % Ketal in hydrolysis mixture: 25.6%

## Hydrocodone 2R,4R-pentanediol ketal
[3]; pH 1, 0 h
  hydrolysis of the ketal: 0
[3]; pH 1, 0.33 h
  hydrolysis of the ketal: 50
[3]; pH 1, 1 h
  hydrolysis of the ketal: 90
[3]; pH 1, 2 h
  hydrolysis of the ketal: 99.8
[3]; pH 1, 4 h
  hydrolysis of the ketal: 100
[3]; pH 1.5, 0 h
  hydrolysis of the ketal: 0
[3]; pH 1.5, 0.33 h
  hydrolysis of the ketal: 30.6
[3]; pH 1.5, 1 h
  hydrolysis of the ketal: 59.4
[3]; pH 1.5, 2 h
  hydrolysis of the ketal: 85.1
[3]; pH 1.5, 4 h
  hydrolysis of the ketal: 98.2
[3]; pH 2, 0 h
  hydrolysis of the ketal: 0
[3]; pH 2, 0.33 h
  hydrolysis of the ketal: 8.3
[3]; pH 2, 1 h
  hydrolysis of the ketal: 21.9
[3]; pH 2, 2 h
  hydrolysis of the ketal: 37.7
[3]; pH 2, 4 h
  hydrolysis of the ketal: 58.2
[3]; pH 2.5, 0 h
  hydrolysis of the ketal: 0
[3]; pH 2.5, 0.33 h
  hydrolysis of the ketal: 0
[3]; pH 2.5, 1 h
  hydrolysis of the ketal: 0
[3]; pH 2.5, 2 h
  hydrolysis of the ketal: 15.9
[3]; pH 2.5, 4 h
  hydrolysis of the ketal: 26.4
[3]; pH 3, 0 h
  hydrolysis of the ketal: 0
[3]; pH 3, 0.33 h
  hydrolysis of the ketal: 0
[3]; pH 3, 1 h
  hydrolysis of the ketal: 0
[3]; pH 3, 2 h
  hydrolysis of the ketal: 5.9
[3]; pH 3, 4 h
  hydrolysis of the ketal: 12.7
[3]; pH 4, 4 h, estimated from longer hydrolysis times
  hydrolysis of the ketal: 1.3*
[3]; pH 5, 4 h, estimated from longer hydrolysis times
  hydrolysis of the ketal: 0.15*
[3]; pH 7, 4 h, estimated from longer hydrolysis times
  hydrolysis of the ketal: 0.01*
[3]; pH 12, 4 h, estimated from longer hydrolysis times
  hydrolysis of the ketal: 0.01*
[3]; pH buffers 37° C.
  pH at which hydrolysis of the ketal is fastest: fastest at pH 1
